Patent publication US20100273895A1, “FORMULATIONS OF CANNABIDIOL AND PRODRUGS OF CANNABIDIOL AND METHODS OF USING THE SAME” (AllTranz Inc., priority 2009, published 2010)

Assay: CBD accelerated stability study at 40° C.
Format: physicochemical
Protocol: In order to assess the stability of cannabidiol formulations, the pH rate profiles over a range of probable pHs were studied. The rate profile with the lowest Kdeg would be desirable in order to ensure a two-year shelf life for a cannabidiol gel. The pH ranges studied were 4.0, 5.0, 5.5, 6.0, 6.5 and 7.0 prepared with either an acetate (0.01M: pH 4.0, 5.0 and 5.5) or phosphate (0.01 M: pH 6.0, 6.5 and 7.0) buffer system and maintained at an ionic strength of 0.154 M with NaCl at 40° C. CBD was prepared at 1 mg/mL and analyzed initially at a theoretical 10 μg/ml concentration. The results of these studies appear in FIGS. 13 and 14.
Additional stability studies were conducted with CBD synthesized by alternate routes. […] Over sixty-five days, the purity of CBD is still greater than 99%.

[1] = sixty-five day accelerated stability study at 40° C.

For `C=C(C)[C@@H]1CCC(C)=C[C@H]1c1c(O)cc(CCCCC)cc1O` [CBD, cannabidiol], the “28.9 min peak as share of the total area compared to the CBD peak” value (65 days in a 40° C. chamber) was “approximately 0.74%”, the “purity of CBD” value (over sixty-five days) was “greater than 99%” and the degradation [1] was “no significant degradation”. For the same compound, the purity remaining [1] was greater than 98%.
